The values that follow come from patent US9403813B2, “Azetidine amide derivatives as orexin receptor antagonists” (ACTELION PHARMACEUTICALS LTD, priority 2013, dated 2016).

One test addresses human orexin-1 receptor (Homo sapiens (Human), UniProt O43613). As to the kind of experiment: Intracellular calcium measurements (FLIPR), antagonism of orexin-A response. It is filed as cell-based. The following applies: CHO cells expressing human orexin-1 receptor, 3 nM orexin-A, geometric mean if determined several times, read-out: IC50 OX1. As for the experimental part: (§1) Antagonistic activities on both orexin receptors have been measured for each example compound using the following procedure:
(§2) In Vitro Assay: Intracellular Calcium Measurements:
(§3) Chinese hamster ovary (CHO) cells expressing the human orexin-1 receptor and the human orexin-2 receptor, respectively, are grown in culture medium (Ham F-12 with L-Glutamine) containing 300 μg/mL G418, 100 U/mL penicillin, 100 μg/mL streptomycin and 10% heat inactivated fetal calf serum (FCS). The cells are seeded at 20,000 cells/well into 384-well black clear bottom sterile plates (Greiner). The seeded plates are incubated overnight at 37° C. in 5% CO2. Human orexin-A as an agonist is prepared as 1 mM stock solution in MeOH:water (1:1), diluted in HBSS containing 0.1% bovine serum albumin (BSA), NaHCO3: 0.375 g/L and 20 mM HEPES for use in the assay at a final concentration of 3 nM.
(§4) Antagonists are prepared as 10 mM stock solution in DMSO, then diluted in 384-well plates using DMSO followed by a transfer of the dilutions into in HBSS containing 0.1% bovine serum albumin (BSA), NaHCO3: 0.375 g/L and 20 mM HEPES. On the day of the assay, 50 μL of staining buffer (HBSS containing 1% FCS, 20 mM HEPES, NaHCO3: 0.375 g/L, 5 mM probenecid (Sigma) and 3 μM of the fluorescent calcium indicator fluo-4 AM (1 mM stock solution in DMSO, containing 10% pluronic) is added to each well. The 384-well cell-plates are incubated for 50 min at 37° C. in 5% CO2 followed by equilibration at rt for 30 min before measurement.
(§5) Within the Fluorescent Imaging Plate Reader (FLIPR Tetra, Molecular Devices), antagonists are added to the plate in a volume of 10 μL/well, incubated for 120 min and finally 10 μL/well of agonist is added. Fluorescence is measured for each well at 1 second intervals, and the height of each fluorescence peak is compared to the height of the fluorescence peak induced by 3 nM orexin-A with vehicle in place of antagonist. The IC50 value (the concentration of compound needed to inhibit 50% of the agonistic response) is determined and may be normalized using the obtained IC50 value of an on-plate reference compound. Optimized conditions were achieved by adjustment of pipetting speed and cell splitting regime. The calculated IC50 values may fluctuate depending on the daily cellular assay performance. Fluctuations of this kind are known to those skilled in the art. In the case where IC50 values have been determined several times for the same compound, the geometric mean has been given.

Another test concerns the target human orexin-2 receptor (Homo sapiens (Human), UniProt O43614). Described as above. The following applies: CHO cells expressing human orexin-2 receptor, 3 nM orexin-A, geometric mean if determined several times, read-out: IC50 OX2. The format is cell-based. Here is the method: as §1, §2, §3, §4, §5

Chain of human orexin-1 receptor (O43613 whole entry): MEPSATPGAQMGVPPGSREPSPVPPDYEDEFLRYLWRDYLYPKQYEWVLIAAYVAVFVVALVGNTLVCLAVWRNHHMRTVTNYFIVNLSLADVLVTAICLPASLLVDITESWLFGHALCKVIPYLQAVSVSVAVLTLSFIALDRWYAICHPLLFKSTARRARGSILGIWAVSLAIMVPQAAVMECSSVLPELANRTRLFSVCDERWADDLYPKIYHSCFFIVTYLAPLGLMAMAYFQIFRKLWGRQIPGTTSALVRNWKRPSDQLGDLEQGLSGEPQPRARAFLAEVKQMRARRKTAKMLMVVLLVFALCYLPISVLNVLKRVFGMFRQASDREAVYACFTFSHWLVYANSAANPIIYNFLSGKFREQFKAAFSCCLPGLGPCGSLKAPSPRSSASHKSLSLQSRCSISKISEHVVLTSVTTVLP
Chain of human orexin-2 receptor (O43614 whole entry): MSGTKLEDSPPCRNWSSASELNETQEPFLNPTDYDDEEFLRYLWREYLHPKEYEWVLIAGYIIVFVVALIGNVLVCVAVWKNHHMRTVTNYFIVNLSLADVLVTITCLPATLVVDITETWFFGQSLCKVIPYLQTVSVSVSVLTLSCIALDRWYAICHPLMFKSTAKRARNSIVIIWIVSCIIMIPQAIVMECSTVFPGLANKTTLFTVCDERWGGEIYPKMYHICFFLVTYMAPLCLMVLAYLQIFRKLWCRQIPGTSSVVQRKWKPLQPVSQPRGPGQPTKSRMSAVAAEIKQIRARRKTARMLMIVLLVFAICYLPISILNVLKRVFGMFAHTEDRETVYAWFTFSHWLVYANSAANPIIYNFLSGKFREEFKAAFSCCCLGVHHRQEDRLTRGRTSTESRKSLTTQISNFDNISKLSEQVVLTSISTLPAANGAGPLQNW

`Cc1nc(C(=O)N2CC[C@H]2c2nc(-c3ccccc3OC(F)(F)F)no2)c(-c2ccccc2C)s1` [Example 45, (2-Methyl-5-o-tolyl-thiazol-4-yl)-{(S)-2-[3-(2-trifluoromethoxy-phenyl)-[1,2,4]oxadiazol-5-yl]-azetidin-1-yl}-methanone]: the IC50 was determined as 0.745 µM on human orexin-1 receptor and 0.416 µM at human orexin-2 receptor.

On to `Cc1cccc(-n2nccn2)c1C(=O)N1CC[C@H]1c1nc(-c2ccccc2OC(F)(F)F)no1` [Example 46, (2-Methyl-6-[1,2,3]triazol-2-yl-phenyl)-{(S)-2-[3-(2-trifluoromethoxy-phenyl)-[1,2,4]oxadiazol-5-yl]-azetidin-1-yl}-methanone], for which the IC50 on human orexin-1 receptor is 1.02 µM; on human orexin-2 receptor, 0.115 µM.

Turning to `O=C(c1cc(OC(F)(F)F)ccc1-n1nccn1)N1CC[C@H]1c1nc(-c2ccccc2OC(F)(F)F)no1` [Example 47, (2-[1,2,3]Triazol-2-yl-5-trifluoromethoxy-phenyl)-{(S)-2-[3-(2-trifluoromethoxy-phenyl)-[1,2,4]oxadiazol-5-yl]-azetidin-1-yl}-methanone], the IC50 was found to be 0.618 µM on human orexin-1 receptor and 0.727 µM on human orexin-2 receptor.

Consider `O=C(c1cc(C(F)(F)F)ccc1-n1nccn1)N1CC[C@H]1c1nc(-c2ccccc2OC(F)(F)F)no1` [Example 48, (2-[1,2,3]Triazol-2-yl-5-trifluoromethyl-phenyl)-{(S)-2-[3-(2-trifluoromethoxy-phenyl)-[1,2,4]oxadiazol-5-yl]-azetidin-1-yl}-methanone], for which the figures for the IC50 at human orexin-1 receptor and at human orexin-2 receptor were 0.96 µM and 0.239 µM, respectively.

For `Cc1cccc(-c2ocnc2C(=O)N2CC[C@H]2c2nc(-c3ccccc3OC(F)(F)F)no2)c1` [Example 49, (5-m-Tolyl-oxazol-4-yl)-{(S)-2-[3-(2-trifluoromethoxy-phenyl)-[1,2,4]oxadiazol-5-yl]-azetidin-1-yl}-methanone], the IC50 at human orexin-1 receptor came to 0.223 µM; at human orexin-2 receptor, 0.305 µM.

As to `O=C(c1ccccc1-n1nccn1)N1CC[C@H]1c1nc(-c2ccccc2OC(F)(F)F)no1` [Example 50, (2-[1,2,3]Triazol-2-yl-phenyl)-{(S)-2-[3-(2-trifluoromethoxy-phenyl)-[1,2,4]oxadiazol-5-yl]-azetidin-1-yl}-methanone], the IC50 on human orexin-1 receptor is 0.583 µM; at human orexin-2 receptor, 0.091 µM.

For `Cc1cccc(-c2scnc2C(=O)N2CC[C@H]2c2nc(-c3ccccc3OC(F)(F)F)no2)c1` [Example 51, (5-m-Tolyl-thiazol-4-yl)-{(S)-2-[3-(2-trifluoromethoxy-phenyl)-[1,2,4]oxadiazol-5-yl]-azetidin-1-yl}-methanone], the IC50 on human orexin-1 receptor was 0.276 µM; at human orexin-2 receptor it was 0.342 µM.

In the case of `Cc1cccc(-c2oc(C)nc2C(=O)N2CC[C@H]2c2nc(-c3ccccc3OC(F)(F)F)no2)c1` [Example 52, (2-Methyl-5-m-tolyl-oxazol-4-yl)-{(S)-2-[3-(2-trifluoromethoxy-phenyl)-[1,2,4]oxadiazol-5-yl]-azetidin-1-yl}-methanone], the IC50 on human orexin-1 receptor is 0.357 µM; on human orexin-2 receptor, 0.309 µM.

With `Cc1onc(-c2ccccc2Cl)c1C(=O)N1CC[C@H]1c1nc(-c2ccccc2OC(F)(F)F)no1` [Example 53, [3-(2-Chloro-phenyl)-5-methyl-isoxazol-4-yl]-{(S)-2-[3-(2-trifluoromethoxy-phenyl)-[1,2,4]oxadiazol-5-yl]-azetidin-1-yl}-methanone], the IC50 worked out at 1.23 µM at human orexin-1 receptor and 1.19 µM on human orexin-2 receptor.

Consider `O=C(c1ccccc1-c1ccccc1)N1CC[C@H]1c1nc(-c2ccccc2OC(F)(F)F)no1` [Example 54, Biphenyl-2-yl-{(S)-2-[3-(2-trifluoromethoxy-phenyl)-[1,2,4]oxadiazol-5-yl]-azetidin-1-yl}-methanone], for which the IC50 amounted to 0.129 µM at human orexin-1 receptor and 0.01 µM on human orexin-2 receptor.

With `Cc1nc(C(=O)N2CC[C@H]2c2nc(-c3cccc(Cl)c3C)no2)c(-c2ccccc2F)s1` [Example 55, {(S)-2-[3-(3-Chloro-2-methyl-phenyl)-[1,2,4]oxadiazol-5-yl]-azetidin-1-yl}-[5-(2-fluoro-phenyl)-2-methyl-thiazol-4-yl]-methanone], the IC50 turned out to be 1.2 µM on human orexin-1 receptor and 0.218 µM on human orexin-2 receptor.

For `Cc1cccc(-c2sc(C)nc2C(=O)N2CC[C@H]2c2nc(-c3cccc(Cl)c3C)no2)c1` [Example 56, {(S)-2-[3-(3-Chloro-2-methyl-phenyl)-[1,2,4]oxadiazol-5-yl]-azetidin-1-yl}-(2-methyl-5-m-tolyl-thiazol-4-yl)-methanone], the IC50 came out at 0.436 µM on human orexin-1 receptor and 0.28 µM on human orexin-2 receptor.

Take `Cc1ccc(-c2ccccc2)c(C(=O)N2CC[C@H]2c2nc(-c3cccc(Cl)c3C)no2)c1` [Example 57, {(S)-2-[3-(3-Chloro-2-methyl-phenyl)-[1,2,4]oxadiazol-5-yl]-azetidin-1-yl}-(4-methyl-biphenyl-2-yl)-methanone]: the IC50 at human orexin-1 receptor is 0.089 µM; at human orexin-2 receptor it was 0.004 µM.

Consider `Cc1nc(C(=O)N2CC[C@H]2c2nc(-c3cccc(Cl)c3C)no2)c(-c2ccccc2)s1` [Example 58, {(S)-2-[3-(3-Chloro-2-methyl-phenyl)-[1,2,4]oxadiazol-5-yl]-azetidin-1-yl}-(2-methyl-5-phenyl-thiazol-4-yl)-methanone], for which the IC50 was 1.03 µM at human orexin-1 receptor and 0.133 µM on human orexin-2 receptor.

As for `Cc1c(Cl)cccc1-c1noc([C@@H]2CCN2C(=O)c2nc(N(C)C)sc2-c2ccccc2)n1` [Example 59, {(S)-2-[3-(3-Chloro-2-methyl-phenyl)-[1,2,4]oxadiazol-5-yl]-azetidin-1-yl}-(2-dimethylamino-5-phenyl-thiazol-4-yl)-methanone], the IC50 was 0.043 µM on human orexin-1 receptor and 0.007 µM on human orexin-2 receptor.

For the compound `Cc1c(Cl)cccc1-c1noc([C@@H]2CCN2C(=O)c2ncsc2-c2ccccc2)n1` [Example 60, {(S)-2-[3-(3-Chloro-2-methyl-phenyl)-[1,2,4]oxadiazol-5-yl]-azetidin-1-yl}-(5-phenyl-thiazol-4-yl)-methanone], the IC50 on human orexin-1 receptor was found to be 1.2 µM; at human orexin-2 receptor, 0.5 µM.

For the compound `Cc1c(Cl)cccc1-c1noc([C@@H]2CCN2C(=O)c2ncsc2-c2cccc(Cl)c2)n1` [Example 61, {(S)-2-[3-(3-Chloro-2-methyl-phenyl)-[1,2,4]oxadiazol-5-yl]-azetidin-1-yl}-[5-(3-chloro-phenyl)-thiazol-4-yl]-methanone], the IC50 at human orexin-1 receptor was 0.993 µM; on human orexin-2 receptor, 0.367 µM.

`Cc1ccc(-c2sc(C)nc2C(=O)N2CC[C@H]2c2nc(-c3cccc(Cl)c3C)no2)cc1` [Example 62, {(S)-2-[3-(3-Chloro-2-methyl-phenyl)-[1,2,4]oxadiazol-5-yl]-azetidin-1-yl}-(2-methyl-5-p-tolyl-thiazol-4-yl)-methanone]: the IC50 was 0.562 µM at human orexin-1 receptor and 0.17 µM on human orexin-2 receptor.

Consider `Cc1nc(C(=O)N2CC[C@H]2c2nc(-c3cccc(Cl)c3C)no2)c(-c2ccccc2C)s1` [Example 63, {(S)-2-[3-(3-Chloro-2-methyl-phenyl)-[1,2,4]oxadiazol-5-yl]-azetidin-1-yl}-(2-methyl-5-o-tolyl-thiazol-4-yl)-methanone], for which the IC50 is 1.13 µM on human orexin-1 receptor and 0.448 µM on human orexin-2 receptor.

For the compound `Cc1cccc(-n2nccn2)c1C(=O)N1CC[C@H]1c1nc(-c2cccc(Cl)c2C)no1` [Example 64, {(S)-2-[3-(3-Chloro-2-methyl-phenyl)-[1,2,4]oxadiazol-5-yl]-azetidin-1-yl}-(2-methyl-6-[1,2,3]triazol-2-yl-phenyl)-methanone], the IC50 at human orexin-1 receptor was 0.812 µM; on human orexin-2 receptor it was 0.069 µM.

Regarding `Cc1c(Cl)cccc1-c1noc([C@@H]2CCN2C(=O)c2cc(OC(F)(F)F)ccc2-n2nccn2)n1` [Example 65, {(S)-2-[3-(3-Chloro-2-methyl-phenyl)-[1,2,4]oxadiazol-5-yl]-azetidin-1-yl}-(2-[1,2,3]triazol-2-yl-5-trifluoromethoxy-phenyl)-methanone], the results for the IC50 on human orexin-1 receptor and at human orexin-2 receptor were 2.73 µM and 0.676 µM, respectively.

In the case of `Cc1c(Cl)cccc1-c1noc([C@@H]2CCN2C(=O)c2cc(C(F)(F)F)ccc2-n2nccn2)n1` [Example 66, {(S)-2-[3-(3-Chloro-2-methyl-phenyl)-[1,2,4]oxadiazol-5-yl]-azetidin-1-yl}-(2-[1,2,3]triazol-2-yl-5-trifluoromethyl-phenyl)-methanone], the IC50 on human orexin-1 receptor is 1.6 µM; at human orexin-2 receptor, 0.39 µM.
